Results: patent US8524691B2, “Phosphonated rifamycins and uses thereof for the prevention and treatment of bone and joint infections” (The Medicines Company, priority 2008, dated 2013)
Values after ≈ are worked out from the molar mass of the structure shown. Values joined by “and” are separate entries in the source; they are usually repeats but may differ in a detail not shown here. Equal values may be shown once. Read-outs that look alike come from different tables or passages of the source.

Legend:
S. aureus ATCC 13709 [1] = test: microbe, parasite or virus in culture; type: cell-based; conditions: for Antibacterial activity (in words, from Table 1): S. aureus MIC
Experimental: (§1) Susceptibility of S. aureus strains to the known antibiotics and synthesized compounds was determined by following the guidelines set by NCCLS (M26-A). Compounds were diluted two-fold serially in DMSO and transferred to cation-adjusted Mueller Hinton broth (CAMHB; Becton Dickinson). 50 μL of compounds diluted in CAMHB was mixed with 100 μL of bacteria diluted in CAMHB in 96-well microtiter plates. The final concentration of micro-organisms in the assay was 5×10^5c.f.u. per mL and the final concentration of DMSO in the assay was 1.25%. Assays were set up in duplicate and incubated at 37° C. for 18 h. The lowest concentration of compound that inhibited visible growth was reported as the minimum inhibitory concentration (MIC).

S. aureus ATCC 13709 [2] = test: microbe, parasite or virus in culture; type: cell-based; conditions: for Serum dependence of antibacterial activity (in words): MIC with versus without serum; for MIC: Staphylococcus aureus, ATCC13709, 18 h
Experimental: as §1
Susceptibility testing experiments were also carried out in the presence of serum. These experiments were carried out similar to the susceptibility testing with the following modifications. 75 μL of compounds diluted in CAMHB was mixed with 75 μL of bacteria diluted in 100% serum from any given source (commercial pooled mouse serum (MS) and human serum (HS), Equitech-Bio Inc.) or diluted in 8% purified human serum albumin (HSA) (Calbiochem). The final concentration of animal serum in the assay was 50% and the final concentration of purified human serum albumin in the assay was 4%; the concentrations of all other components were identical to those described for susceptibility testing.

S. aureus ATCC 29213 = test: Antibacterial susceptibility (MIC), NCCLS broth microdilution; type: cell-based; conditions: CAMHB, 37° C., 18 h
Experimental: as §1

[3] = tested on: S. aureus ATCC 13709^A, Novobiocin and Rifampicin resistant variant; test: as above; type: cell-based
Experimental: as §1

[4] = tested on: Novobiocin resistant mutant strain of S. aureus ATCC 13709; test: Prophylactic efficacy in rat model of S. aureus bone infection; type: in vivo; conditions: tibia 24 h postinfection; for Measured bacterial titer, parent drug: rifabutin 20 mg/kg, listed as Parent drug
Experimental: To determine the in vivo activity of bisphosphonated prodrugs of Rifamycin derived antibacterials in comparison to their non-bisphosphonated parents, compounds 18, 19, 48a, 59, 66, 89, 95, 102, 110, 142b and 164 and their parent drug rifabutin were used as prophylactic therapeutics in an animal model of infection. Specifically, a spontaneous Novobiocin resistant mutant strain of S. aureus ATCC 13709 (a clinical osteomyelitis isolate), was grown overnight at 37° C. in brain heart infusion broth (BHIB). After 16 h of growth, cells were subcultured into fresh BHIB and incubated for 4 to 5 h at 37° C. The cells were washed twice with phosphate-buffered saline (PBS) and resuspended in BHIB supplemented with 10% (vol./vol.) fetal bovine serum at a density of approximately 10^10 colony forming units (CFU)/ml (based upon turbidimetry). The suspension was aliquoted and a portion was used to check the CFU count. The culture was stored frozen (−80° C.) and was used without subculture. For use as an inoculum the culture was thawed, diluted in PBS and kept in an ice bath until it was used.
Animals were infected as described by O'Reilly et al. (Antimicrobial Agents and Chemotherapy (1992), 36(12): 2693-97) to generate the bone infection. Female CD rats (age, 57 to 70 days; n=5/group; Charles River, St-Constant, Canada) were anaesthetized by isofluorane before and during the surgery. Following complete induction of anesthesia, the rat was placed ventral side up and hair was shaved from the surgical site. The skin over the leg was cleaned and disinfected (proviodine-ethanol 70%). A longitudinal incision below the knee joint was made in the sagital plane. The incision was made over the bone below the “knee joint” (tibia head or condyle) but not completely extending to the ankle. A high speed drill fitted with a 2 mm bulb bit was used to drill a hole into the medullar cavity of the tibia. Rats were injected intra-tibially with 0.05 ml 5% sodium morrhuate (sclerosing agent) and then with 0.05 ml of S. aureus suspension (ca. 2×10^7 CFU/rat). The hole was sealed by applying a small amount of dry dental cement which immediately absorbs fluids and adheres to the site. The wound was closed using 3 metal skin clips. Moxifloxacin (as a positive control) was injected once at 10 mg/kg intravenously 1 h postinfection in saline, while the Rifabutin derived prodrugs (prepared in 0.9% saline) were injected at the dose indicated in Table 3 as a single intravenous bolus at different time points prior to the infection.
Infected rats were sacrificed by CO2 asphyxiation 24 h postinfection to monitor the bacterial CFU count. Infected tibiae were removed, dissected free of soft tissue, and weighed. The bones were ground, 50 mg of charcoal were added and the powder was resuspended in 5 ml 0.9% NaCl, serially diluted and processed for quantitative cultures. Treatment efficacy was measured in terms of Log viable bacteria (Log CFU per gram of bone). […] The limit of detection is 2 Log CFU. Statistical comparisons of viable bacterial counts for the different treated and untreated groups were performed with the Dunnett's multiple-comparison test. Differences were considered significant when the P value was <0.05 when comparing treated infected animals to the untreated infected ones. The doses used, the amount of time separating the treatment from the time of infection and the treatment outcomes are shown in Table 3.

| SMILES | Minimum inhibitory concentration, S. aureus ATCC 13709 (S. aureus ATCC 13709 [1]; CAMHB, 37° C., 18 h) [µg/mL] | Minimum inhibitory concentration, ATCC 13709 + 50% Human Serum (S. aureus ATCC 13709 [2]; 50% Human Serum) [µg/mL] | Minimum inhibitory concentration, ATCC 13709 + 50% Mouse Serum (S. aureus ATCC 13709 [2]; 50% Mouse Serum) [µg/mL] | Minimum inhibitory concentration, ATCC 13709 + 50% Rat Serum (S. aureus ATCC 13709 [2]) [µg/mL] | Minimum inhibitory concentration, S. aureus ATCC 29213 (S. aureus ATCC 29213) [µg/mL] | Minimum inhibitory concentration, S. aureus ATCC 13709^A [3] [µg/mL] | further results |
| --- | --- | --- | --- | --- | --- | --- | --- |
| CO[C@H]1/C=C/O[C@@]2(C)Oc3c(C)c(O)c4c(c3C2=O)C2=NC3(CCN(CC(C)C)CC3)NC2=C(NC(=O)/C(C)=C\C=C\[C@H](C)[C@H](OC(=O)CN(C)CCOC(=O)CNC(=O)CCC(P(=O)(O)O)P(=O)(O)O)[C@@H](C)[C@@H](O)[C@@H](C)[C@H](OC(C)=O)[C@@H]1C)C4=O [Compound 42] | 0.125 (≈ 0.1 µM) | 0.0625 | 0.125 | 0.03125 | 0.25 (≈ 0.2 µM) | >128 | Antibacterial activity (in words, from Table 1) (S. aureus ATCC 13709 [1]): very low MICs whether in the absence or in the presence of serum |
| CO[C@H]1/C=C/O[C@@]2(C)Oc3c(C)c(O)c4c(c3C2=O)C2=NC3(CCN(CC(C)C)CC3)NC2=C(NC(=O)/C(C)=C\C=C\[C@H](C)[C@H](OC(=O)CN(CCCCC(P(=O)(O)O)P(=O)(O)O)CCOC(C)=O)[C@@H](C)[C@@H](O)[C@@H](C)[C@H](OC(C)=O)[C@@H]1C)C4=O [Compound 48b] | 0.25 (≈ 0.205 µM) | 0.5 | 0.25 | 0.0625 | 0.5 (≈ 0.41 µM) | >128 | Antibacterial activity (in words, from Table 1) (S. aureus ATCC 13709 [1]): very low MICs whether in the absence or in the presence of serum |
| CCCC(=O)OCCN(CCC(P(=O)(O)O)P(=O)(O)O)CC(=O)O[C@@H]1[C@@H](C)[C@@H](O)[C@@H](C)[C@H](OC(C)=O)[C@H](C)[C@@H](OC)/C=C/O[C@@]2(C)Oc3c(C)c(O)c4c(c3C2=O)C2=NC3(CCN(CC(C)C)CC3)NC2=C(NC(=O)/C(C)=C\C=C\[C@@H]1C)C4=O [Compound 52] | 4 (≈ 3.28 µM) | 16 | 2 | 0.5 | 8 (≈ 6.56 µM) | >128 | Serum dependence of antibacterial activity (in words) (S. aureus ATCC 13709 [2]): significant increase in antibacterial activity in serum |
| CCCCOC(=O)NCCN(CCCCC(P(=O)(O)O)P(=O)(O)O)CC(=O)O[C@@H]1[C@@H](C)[C@@H](O)[C@@H](C)[C@H](OC(C)=O)[C@H](C)[C@@H](OC)/C=C/O[C@@]2(C)Oc3c(C)c(O)c4c(c3C2=O)C2=NC3(CCN(CC(C)C)CC3)NC2=C(NC(=O)/C(C)=C\C=C\[C@@H]1C)C4=O [Compound 71] | 4 (≈ 3.13 µM) | 16 | 8 | 1 | 8 (≈ 6.26 µM) | >128 | Serum dependence of antibacterial activity (in words) (S. aureus ATCC 13709 [2]): significant increase in antibacterial activity in serum |
| CO[C@H]1/C=C/O[C@@]2(C)Oc3c(C)c(O)c4c(c3C2=O)C2=NC3(CCN(CC(C)C)CC3)NC2=C(NC(=O)/C(C)=C\C=C\[C@H](C)[C@H](OC(=O)CN(C)C(=O)CNC(=O)[C@@H](Cc2ccccc2)NC(=O)CNC(=O)CCC(P(=O)(O)O)P(=O)(O)O)[C@@H](C)[C@@H](O)[C@@H](C)[C@H](OC(C)=O)[C@@H]1C)C4=O.N.N [Compound 79a] | 16 |  |  | 64 | 16 | >128 | Minimum inhibitory concentration, ATCC 13709 + 50% Human Serum (S. aureus ATCC 13709 [2]): >128 µg/mL; Minimum inhibitory concentration, ATCC 13709 + 50% Mouse Serum (S. aureus ATCC 13709 [2]): >128 µg/mL |
| CO[C@H]1/C=C/O[C@@]2(C)Oc3c(C)c(O)c4c(c3C2=O)C2=NC3(CCN(CC(C)C)CC3)NC2=C(NC(=O)/C(C)=C\C=C\[C@H](C)[C@H](OC(=O)CNC(=O)CNC(=O)[C@@H](Cc2ccccc2)NC(=O)CNC(=O)CCC(P(=O)(O)O)P(=O)(O)O)[C@@H](C)[C@@H](O)[C@@H](C)[C@H](OC(C)=O)[C@@H]1C)C4=O.N.N [Compound 79b] | 64 | 128 | 64 | 8 | 64 | >128 |  |
| COc1c(N2C[C@@H]3CCCN[C@@H]3C2)c(F)cc2c(=O)c(C(=O)O)cn(C3CC3)c12 [Moxifloxacin, reference compound] |  |  |  |  |  |  | Measured bacterial titer, positive control ([4]; Moxifloxacin 10 mg/kg intravenously once 1 h postinfection, listed as Positive control): 2.62 ± 0.37 Log CFU/g of bone and 3.22 ± 0.65 Log CFU/g of bone and 2.27 ± 0.21 Log CFU/g of bone and 2.63 ± 0.65 Log CFU/g of bone and 2.06 ± 0.10 Log CFU/g of bone and 2.95 ± 1.07 Log CFU/g of bone and 2.2 ± 0.28 Log CFU/g of bone and 3.01 ± 0.74 Log CFU/g of bone |
| CO[C@H]1/C=C/O[C@@]2(C)Oc3c(C)c(O)c4c(c3C2=O)C2=NC3(CCN(CC(C)C)CC3)NC2=C(NC(=O)/C(C)=C\C=C\[C@H](C)[C@H](O)[C@@H](C)[C@@H](O)[C@@H](C)[C@H](OC(C)=O)[C@@H]1C)C4=O [Rifabutin, reference compound] |  |  |  |  |  |  | MIC (S. aureus ATCC 13709 [1]; Staphylococcus aureus, ATCC13709, CAMHB, 37° C., 18 h, read-out: Minimum inhibitory concentration, S. aureus ATCC 13709): 0.0312 µg/mL (≈ 0.0369 µM); MIC (S. aureus ATCC 13709 [2]; read-out: Minimum inhibitory concentration, ATCC 13709 + 50% Human Serum): 0.0312 µg/mL; MIC (S. aureus ATCC 13709 [2]; read-out: Minimum inhibitory concentration, ATCC 13709 + 50% Mouse Serum): 0.0625 µg/mL; MIC (S. aureus ATCC 13709 [2]; read-out: Minimum inhibitory concentration, ATCC 13709 + 50% Rat Serum): 0.0312 µg/mL; Measured bacterial titer, parent drug ([4]; 1 day prior to infection): 2.03 ± 0.07 Log CFU/g of bone and 2.09 ± 0.06 Log CFU/g of bone and 2.03 ± 0.09 Log CFU/g of bone and 2.07 ± 0.09 Log CFU/g of bone and 2.35 ± 1.12 Log CFU/g of bone; Measured bacterial titer, parent drug ([4]; 5 days prior to infection): 2.75 ± 0.94 Log CFU/g of bone and 4.27 ± 1.91 Log CFU/g of bone and 4.34 ± 0.79 Log CFU/g of bone and 4.71 ± 1.05 Log CFU/g of bone; MIC (S. aureus ATCC 29213; Staphylococcus aureus, ATCC29213, read-out: Minimum inhibitory concentration, S. aureus ATCC 29213): 0.0156 µg/mL (≈ 0.0184 µM) |
